How the values were obtained:
ER-positive T47D cells = assay: T47D cell growth inhibition (CellTiter-Glo, 6 days), ER degrader plus CDK4/6 inhibitor; assay type: cell-based, human
[1] = tested on: MCF7 human xenograft tumors; assay: Anti-tumor efficacy in MCF7 human xenograft tumors; assay type: in vivo; conditions: BALB/c nude mouse, 17β-estradiol tablet, treated for 21 days, versus each agent alone
Procedure: MCF-7 cells, a breast cancer cell cline, (10×10^6) in 0.1 mL of PBS mixed with 0.1 mL matrigel (total 0.2 mL) were inoculated subcutaneously at the right flank of each mouse, which has been implanted with 17β-estradiol (0.18 mg) tablet subcutaneously in the left flank three days before. When the average tumor volume reaches approximately 175 mm^3, the animals were randomized and treatment was started.
MCF-7 tumor cells (10×10^6) in 0.1 mL of PBS mixed with 0.1 mL matrigel (total 0.2 mL) were inoculated subcutaneously at the right flank of each BALB/c nude mouse, which has been implanted with 17β-estradiol (0.18 mg) tablet subcutaneously in the left flank three days before. When the average tumor volume reached approximately 175 mm^3, the animals were randomized and treated for 21 days with an ER degrader 160a alone, or with a CDK4/6 inhibitor, Palbociclib, alone, or with the combination of ER degrader 160a and Palbociclib.
MCF-7 tumor cells (10×10^6) in 0.1 mL of PBS mixed with 0.1 mL matrigel (total 0.2 mL) were inoculated subcutaneously at the right flank of each BALB/c nude mouse, which has been implanted with 17β-estradiol (0.18 mg) tablet subcutaneously in the left flank three days before. […]

[2] = tested on: Tamoxifen-resistant MCF7 human xenograft tumors; assay: Anti-tumor efficacy in tamoxifen-resistant MCF7 human xenograft tumors; assay type: in vivo; conditions: tamoxifen-resistant MCF7 xenograft (passage 9), BALB/c nude mouse, treated for 28; versus each agent alone
Procedure: Tamoxifen-resistant MCF-7 cells were subcutaneously implanted to establish cell line-derived xenograft tumors. […] This tumor was then defined as passage 0. The tumor fragments were constantly implanted into new animals (per passage) with 30 mg/kg Tamoxifen treatment. For the efficacy study, the passage 9 tamoxifen-resistant tumor fragments (˜30 mm3) were inoculated subcutaneously at the right flank of each BALB/c nude mouse, which has been implanted with 17β-estradiol (0.36 mg) tablet subcutaneously in the left flank three days before. When the average tumor volume reached approximately 175 mm3, the animals were randomized and treated for 28. Tamoxifen-resistant MCF7 human xenograft tumors were treated with an ER degrader 160b alone, or with a CDK4/6 inhibitor, Palbociclib, alone, or with the combination of ER degrader 160b and Palbociclib.

| SMILES | cell growth inhibition, combination with Abemaciclib (ER-positive T47D cells; ER degrader at increasing concentrations combined with Abemaciclib 10, 30, 100 nM, versus single agent) | cell growth inhibition, combination with Palbociclib (ER-positive T47D cells; ER degrader at increasing concentrations combined with Palbociclib 10, 30, 100 nM, versus each agent alone) | tumor growth inhibition, combination with Palbociclib [1] | tumor growth inhibition, combination with Palbociclib [2] |
| --- | --- | --- | --- | --- |
| CCC(=C(c1ccc(O)cc1)c1ccc(N2CCC(CN3CCN(c4ccc5c(c4)CN([C@H]4CCC(=O)NC4=O)C5=O)CC3)CC2)cc1)c1ccccc1 [160a, (E)/(Z)-(S)-3-(5-(4-((1-(4-(1-(4-hydroxyphenyl)-2-phenylbut-1-en-1-yl)phenyl)piperidin-4-yl)methyl)piperazin-1-yl)-1-oxoisoindolin-2-yl)piperidine-2,6-dione] | synergizes with CDK4/6 inhibitor Abemaciclib in vitro to inhibit cell growth with greater efficacy than the ER degrader alone | synergizes with CDK4/6 inhibitor Palbociclib in vitro to inhibit cell growth with greater efficacy than the ER degrader or CDK4/6 inhibitor alone | synergizes with CDK4/6 inhibitor Palbociclib in vivo to inhibit tumor growth with greater efficacy than the ER degrader or CDK4/6 inhibitor alone |  |
| CC/C(=C(\c1ccc(O)cc1)c1ccc(N2CCC(CN3CCN(c4ccc5c(c4)CN([C@H]4CCC(=O)NC4=O)C5=O)CC3)CC2)cc1)c1ccccc1 [160b] |  |  |  | synergizes with CDK4/6 inhibitor Palbociclib in vivo to inhibit tumor growth with greater efficacy than the ER degrader or CDK4/6 inhibitor alone |
